Literature values in patent publication US9308174B2, “Lyophilized formulations of bendamustine hydrochloride” (CHEMI S.P.A., priority 2013, dated 2016).
Read-outs that look alike come from different tables or passages of the source.

Tests used:
[1] = water, 5° C.

Cl.Cn1c(CCCC(=O)O)nc2cc(N(CCCl)CCCl)ccc21 [bendamustine hydrochloride, Bendamustine hydrochloride]
HP1 percentage ([1]; after 3 hours): 0.86%
HP1 percentage ([1]; after 6 hours): 3.81%
appearance of the solution ([1]; after 6 hours): formation of a precipitate
HP1 percentage ([1]; time=0): 0.6%
time to 10% degradation of the active ingredient (aqueous solution 0.25 mg/ml, room temperature): 4.2 h
time to lose 10% of its title (t90) (solution at 4° C.): 119.5 h
time to lose 10% of its title (t90) (solution at 23° C.): 9.2 h
